Tested on: dental ulcer of the patient
Experiment: Dental treatment: solution sprayed onto dental ulcer of a patient, pain relief
Type: in vivo, human
Conditions: 1 mg/mL solution in normal saline
Protocol: A 1 mg/mL solution of the title compound of Example 1 was prepared in normal saline.
The resultant solution was sprayed using a standard spray device onto the dental ulcer of the patient. Pain relief occurred within 1 minute. The duration of pain relief was about 3 hours.

“Ala-Lys-Pro-Ser-Tyr-Hyp-Thr-Tyr-Hyp-Lys-Procaine [Example 1]” was tested, and the “Duration of pain relief” value was “about 3 hours” and the “Time to occurrence of pain relief” value was ≤ 1 min.

— US20240165247A1, “NEW PEPTIDE CONJUGATES” (JIANGYIN USUN PHARMACEUTICAL CO., LTD., priority 2021, published 2024)
